Patent US10273233B2, “Inhibitors of influenza viruses replication” (Vertex Pharmaceuticals Incorporated, priority 2015, dated 2019)
Like-named read-outs stand apart in the source and are kept apart here.

Assays:
physchem [1] = details: thermodynamic from solid
physchem [2] = details: thermodynamic from solid; remark: listed apart in the source
A/Puerto Rico/8/34 = test: 3-day CP assay in MDCK cells; format: cell-based; details: Influenza A virus
A/Mexico/4108/2009 = test: 3-day CP assay in MDCK cells; format: cell-based; details: Influenza A virus
A/Aichi/2/68 = test: 3-day CP assay in MDCK cells; format: cell-based; details: Influenza A virus
A/Hong Kong/8/68 = test: 3-day CP assay in MDCK cells; format: cell-based; details: Influenza A virus
A/Georgia/17/2006 = test: 3-day CP assay in MDCK cells; format: cell-based; details: Influenza A virus
A/Cambodia0371/2007 = test: 3-day CP assay in MDCK cells; format: cell-based; details: Influenza A virus
A/Uruguay/716/2007 = test: 3-day CP assay in MDCK cells; format: cell-based; details: Influenza A virus
A/Henan/Jinshui/147/2007 = test: 3-day CP assay in MDCK cells; format: cell-based; details: Influenza A virus
B/Memphis/20/1996--070 = test: 3-day CP assay in MDCK cells; format: cell-based; details: Influenza B virus
A/Mal/302/54 = test: 3-day CP assay in MDCK cells; format: cell-based; details: Influenza A virus
A/NWS/33 = test: 3-day CP assay in MDCK cells; format: cell-based, influenza A; details: Influenza A virus, MDCK
A/WS/33 = test: 3-day CP assay in MDCK cells; format: cell-based; details: Influenza A virus
A/Santiago/7981/2006 = test: 3-day CP assay in MDCK cells; format: cell-based; details: Influenza A virus
A/Victoria/3/75 = test: 3-day CP assay in MDCK cells; format: cell-based; details: Influenza A virus
B/Russia/69 = test: 3-day CP assay in MDCK cells; format: cell-based; details: Influenza B virus
A/Denver/1/57 = test: 3-day CP assay in MDCK cells; format: cell-based; details: Influenza A virus
[3] = test system: A/California/07/2009 NYMC, X-179A; test: 3-day CP assay in MDCK cells; format: cell-based; details: Influenza A virus
A/FM/1/47 = test: 3-day CP assay in MDCK cells; format: cell-based; details: Influenza A virus
A/Port Chalmers/1/73 = test: 3-day CP assay in MDCK cells; format: cell-based; details: Influenza A virus
A/Virginia/01/2006 = test: 3-day CP assay in MDCK cells; format: cell-based; details: Influenza A virus
B/Memphis/20/1996--071 = test: 3-day CP assay in MDCK cells; format: cell-based; details: Influenza B virus
A/Weiss/43 = test: 3-day CP assay in MDCK cells; format: cell-based; details: Influenza A virus
A/New York/18/2009 = test: 3-day CP assay in MDCK cells; format: cell-based; details: Influenza A virus
A/Virginia/ATCC3/2009 = test: 3-day CP assay in MDCK cells; format: cell-based; details: Influenza A virus
A/Georgia/20/2006 = test: 3-day CP assay in MDCK cells; format: cell-based, influenza A; details: Influenza A virus, MDCK
A/St. Petersburg8/2006 = test: 3-day CP assay in MDCK cells; format: cell-based; details: Influenza A virus
A/Missouri/3/2006 = test: 3-day CP assay in MDCK cells; format: cell-based; details: Influenza A virus
A/Texas/48/2009 = test: 3-day CP assay in MDCK cells; format: cell-based; details: Influenza A virus
A/Wisconsin/67/2005 = test: 3-day CP assay in MDCK cells; format: cell-based; details: Influenza A virus
A/Equine/Miami/63 = test: microbe, parasite or virus in culture; format: cell-based; details: Influenza A virus, MDCK
A/Swine/1976/31 = test: microbe, parasite or virus in culture; format: cell-based; details: Influenza A virus, MDCK, in Sus scrofa
A/California/07/2009 = test: 3-day CP assay in MDCK cells; format: cell-based; details: Influenza A virus, MDCK; A/California/07/2009
A/South Dakota/6/2007 = test: 3-day CP assay in MDCK cells; format: cell-based; details: Influenza A virus
A/Virginia/ATCC2/2009 = test: 3-day CP assay in MDCK cells; format: cell-based; details: Influenza A virus
A/New Jersey/8/76 = test: microbe, parasite or virus in culture; format: cell-based; details: Influenza A virus, MDCK
A/Nebraska/1/2006 = test: 3-day CP assay in MDCK cells; format: cell-based; details: Influenza A virus
A/Hawaii/2/2006 = test: 3-day CP assay in MDCK cells; format: cell-based; details: Influenza A virus
A/Swine/Iowa/15/30 = test: microbe, parasite or virus in culture; format: cell-based, influenza A; details: Influenza A virus, MDCK, in Sus scrofa
A/Fukushima/141/2006 = test: 3-day CP assay in MDCK cells; format: cell-based; details: Influenza A virus
A/Chelyabinsk/1/200 = test: 3-day CP assay in MDCK cells; format: cell-based; details: Influenza A virus
B/Lee/40 = test: 3-day CP assay in MDCK cells; format: cell-based; details: Influenza B virus
A/Texas/12/2007 = test: 3-day CP assay in MDCK cells; format: cell-based; details: Influenza A virus

In the case of `CC(C)(C)[C@@H](CC(=O)O)Nc1nc(-c2c[nH]c3ncc(F)cc23)ncc1F` [Hydrate 1 of Compound (1)], the “USP Definition” value (pH 0.84) is reported as “Slightly Soluble”, the “USP Definition” value (pH 1.59) is reported as “Slightly Soluble” and the “Final Form” value (pH 2.84) is reported as “Hydrate 3”. The “USP Definition” value (pH 2.84) was “Practically Insoluble”, the “Final Form” value (pH 4.22) was “Hydrate 3” and the “USP Definition” value (pH 4.22) was “Practically Insoluble”. The “Final Form” value (pH 5.17) was “Hydrate 3”, the “USP Definition” value (pH 5.17) was “Practically Insoluble” and the “Final Form” value (pH 5.96) was “Hydrate 3”. For the same compound, the “USP Definition” value (pH 5.96) was “Practically Insoluble”, the “Final Form” value (pH 6.38) was “Hydrate 3” and the “USP Definition” value (pH 6.38) was “Very Slightly Soluble”. The “Final Form” value (pH 6.71) was “Hydrate 3”, the “USP Definition” value (pH 6.71) was “Very Slightly Soluble” and the “Final Form” value (pH 7.07) was “Hydrate 3”. The “USP Definition” value (pH 7.07) was “Very Slightly Soluble”, the “Final Form” value (pH 7.73) was “Hydrate 3” and the “USP Definition” value (pH 7.73) was “Slightly Soluble”. The “Final Form” value (pH 8.13) was “Hydrate 3”, the “USP Definition” value (pH 8.13) was “Slightly Soluble” and the “Final Form” value (pH 8.4) was “Hydrate 3”. The “USP Definition” value (pH 8.4) was “Slightly Soluble”, the solubility at 5 days (physchem [1]; pH 1.55, fassgf or other biorelevant) was 2660 µg/mL and the solubility at 5 days (physchem [1]; pH 3.56, aqueous with cosolvent or surfactant or cyclodextrin) was 285 µg/mL. For the same compound, the solubility at 5 days (physchem [1]; pH 3.96, aqueous with cosolvent or surfactant or cyclodextrin) was 135 µg/mL, the solubility at 5 days (physchem [1]; pH 4.15, aqueous with cosolvent or surfactant or cyclodextrin) was 1150 µg/mL and the solubility at 5 days (physchem [1]; pH 4.17, aqueous with cosolvent or surfactant or cyclodextrin) was 1640 µg/mL. For the same compound, the solubility at 5 days (physchem [1]; pH 4.18, saline or isotonic) was 108 µg/mL, the solubility at 5 days (physchem [1]; pH 4.79, aqueous with cosolvent or surfactant or cyclodextrin) was 89 µg/mL and the solubility at 5 days (physchem [1]; pH 4.84, saline or isotonic) was 94 µg/mL. It also gave a solubility at 5 days (physchem [1]; pH 4.93, aqueous with cosolvent or surfactant or cyclodextrin) of 108 µg/mL, a solubility at 5 days (physchem [1]; pH 5.03, water) of 98 µg/mL and a solubility at 5 days (physchem [1]; pH 5.04, aqueous with cosolvent or surfactant or cyclodextrin) of 512 µg/mL. For the same compound, the solubility at 5 days (physchem [1]; pH 5.08, aqueous with cosolvent or surfactant or cyclodextrin) was 606 µg/mL, the solubility at 5 days (physchem [1]; pH 5.11, fessif) was 60 µg/mL and the solubility at 5 days (physchem [1]; pH 5.13, aqueous with cosolvent or surfactant or cyclodextrin) was 354 µg/mL. It also gave a solubility at 5 days (physchem [1]; pH 5.22, aqueous with cosolvent or surfactant or cyclodextrin) of 1620 µg/mL, a solubility at 5 days (physchem [1]; pH 5.39, aqueous with cosolvent or surfactant or cyclodextrin) of 110 µg/mL and a solubility at 5 days (physchem [1]; pH 5.53, aqueous with cosolvent or surfactant or cyclodextrin) of 223 µg/mL. The solubility at 5 days (physchem [1]; pH 5.58, saline or isotonic) was 228 µg/mL, the solubility at 5 days (physchem [1]; pH 5.59, aqueous with cosolvent or surfactant or cyclodextrin) was 152 µg/mL and the solubility at 5 days (physchem [1]; pH 5.74, aqueous with cosolvent or surfactant or cyclodextrin) was 289 µg/mL. It also gave a solubility at 5 days (physchem [1]; pH 5.78, aqueous with cosolvent or surfactant or cyclodextrin) of 1020 µg/mL, a solubility at 5 days (physchem [1]; pH 5.83, aqueous with cosolvent or surfactant or cyclodextrin) of 1170 µg/mL and a solubility at 5 days (physchem [1]; pH 5.97, aqueous with cosolvent or surfactant or cyclodextrin) of 272 µg/mL. For the same compound, the solubility at 5 days (physchem [1]; pH 6.04, aqueous with cosolvent or surfactant or cyclodextrin) was 467 µg/mL, the solubility at 5 days (physchem [1]; pH 6.17, aqueous with cosolvent or surfactant or cyclodextrin) was 120 µg/mL and the solubility at 5 days (physchem [1]; pH 6.18, aqueous with cosolvent or surfactant or cyclodextrin) was 170 µg/mL. For the same compound, the solubility at 5 days (physchem [1]; pH 6.19, aqueous with cosolvent or surfactant or cyclodextrin) was 200 µg/mL, the solubility at 5 days (physchem [1]; pH 6.47, fassif) was 80 µg/mL and the solubility at 5 days (physchem [1]; pH 6.61, aqueous buffer) was 945 µg/mL. For the same compound, the solubility at 5 days (physchem [1]; pH 6.63, aqueous buffer) was 979 µg/mL, the solubility at 5 days (physchem [1]; pH 6.7, aqueous with cosolvent or surfactant or cyclodextrin) was 360 µg/mL and the solubility at 5 days (physchem [1]; pH 7.42, aqueous buffer) was 7620 µg/mL. For the same compound, the solubility at 5 days (physchem [1]; pH 7.46, aqueous buffer) was 6620 µg/mL, the solubility at 2 weeks (physchem [2]; pH 0.84, saline or isotonic) was 2150 µg/mL and the solubility at 2 weeks (physchem [2]; pH 1.59, saline or isotonic) was 1150 µg/mL. It also gave a solubility at 2 weeks (physchem [2]; pH 2.84, saline or isotonic) of 57 µg/mL, a solubility at 2 weeks (physchem [2]; pH 4.22, saline or isotonic) of 4 µg/mL and a solubility at 2 weeks (physchem [2]; pH 5.17, saline or isotonic) of 21 µg/mL. The solubility at 2 weeks (physchem [2]; pH 5.96, saline or isotonic) was 78 µg/mL, the solubility at 2 weeks (physchem [2]; pH 6.38, saline or isotonic) was 216 µg/mL and the solubility at 2 weeks (physchem [2]; pH 6.71, saline or isotonic) was 420 µg/mL. For the same compound, the solubility at 2 weeks (physchem [2]; pH 7.07, saline or isotonic) was 335 µg/mL, the solubility at 2 weeks (physchem [2]; pH 7.73, saline or isotonic) was 2240 µg/mL and the solubility at 2 weeks (physchem [2]; pH 8.13, saline or isotonic) was 4830 µg/mL. The solubility at 2 weeks (physchem [2]; pH 8.4, saline or isotonic) was 4360 µg/mL.

In the case of `CC(=O)N[C@H]1[C@H]([C@H](O)[C@H](O)CO)OC(C(=O)O)=C[C@@H]1N=C(N)N` [Zanamivir], the EC50 (A/Puerto Rico/8/34) is reported as over 10 µM, the EC50 (A/Mexico/4108/2009) is reported as 3.8 µM and the EC50 (A/Aichi/2/68) is reported as over 10 µM. For the same compound, the EC50 (A/Hong Kong/8/68) was 0.15 µM, the EC50 (A/Georgia/17/2006) was over 10 µM and the EC50 (A/Cambodia0371/2007) was 2.1 µM. For the same compound, the EC50 (A/Uruguay/716/2007) was 4.7 µM, the EC50 (A/Henan/Jinshui/147/2007) was over 10 µM and the EC50 (B/Memphis/20/1996--070) was 2.6 µM. For the same compound, the EC50 (A/Mal/302/54) was 0.28 µM, the EC50 (A/NWS/33) was over 10 µM and the EC50 (A/WS/33) was over 10 µM. For the same compound, the EC50 (A/Santiago/7981/2006) was 4 µM, the EC50 (A/Victoria/3/75) was 4.1 µM and the EC50 (B/Russia/69) was 3.1 µM. It also gave an EC50 (A/Denver/1/57) of over 10 µM, an EC50 [3] of 5.6 µM and an EC50 (A/FM/1/47) of 2.6 µM. It also gave an EC50 (A/Port Chalmers/1/73) of 0.67 µM, an EC50 (A/Virginia/01/2006) of 0.83 µM and an EC50 (B/Memphis/20/1996--071) of 6 µM. For the same compound, the EC50 (A/Weiss/43) was 0.08 µM, the EC50 (A/New York/18/2009) was 0.31 µM and the EC50 (A/Virginia/ATCC3/2009) was over 10 µM. It also gave an EC50 (A/Georgia/20/2006) of 4.3 µM, an EC50 (A/St. Petersburg8/2006) of 6 µM and an EC50 (A/Missouri/3/2006) of 3.6 µM. It also gave an EC50 (A/Texas/48/2009) of 1.7 µM, an EC50 (A/Wisconsin/67/2005) of 0.16 µM and an EC50 (A/Equine/Miami/63) of 0.93 µM. For the same compound, the EC50 (A/Swine/1976/31) was 0.25 µM, the EC50 (A/California/07/2009) was over 10 µM and the EC50 (A/South Dakota/6/2007) was 3.4 µM. The EC50 (A/Virginia/ATCC2/2009) was over 10 µM, the EC50 (A/New Jersey/8/76) was 6.2 µM and the EC50 (A/Nebraska/1/2006) was over 10 µM. The EC50 (A/Hawaii/2/2006) was over 10 µM, the EC50 (A/Swine/Iowa/15/30) was 1.8 µM and the EC50 (A/Fukushima/141/2006) was 0.27 µM. It also gave an EC50 (A/Chelyabinsk/1/200) of 7.6 µM, an EC50 (B/Lee/40) of over 10 µM and an EC50 (A/Texas/12/2007) of 8.2 µM.
